This assay in a line: Fit of relaxivity vs pH profiles: proton exchange kinetic and relaxation parameters. The settings on record: 0.15 M NaCl, 298 K. In kind it is physicochemical. The method, then: At pH >3, the r1 values of GdL2 decrease with the increase of pH from 6.6 mM^–1 s^–1 to reach a plateau of 5.1 mM^–1 s^–1 around pH = 7.5. A further increase of the pH results in the slight increase of r1 reaching a maximum around pH = 9.5. Finally, at pH >9.5, another small decrease in r1 is observed. On the other hand, in the case of GdL1, the r1 values are independent from the pH in the range 4.0–7.5, whereas at pH >8.0, r1 increases up to 5.2 mM^–1 s^–1. The r1 values of GdL1 were measured in the pH range 4–10 in order to avoid the hydrolysis of the methyl ester. […] Then, the overall relaxivity, r1, is given by eq 1: [drawing 1] 1 where r1^is, r1^os, and r1^pr are the relaxivity components due to the inner and outersphere water molecules and the −OH group, respectively. r1^pr can be expressed as follows:[26]−[28] [drawing 2] 2
According to the proposed reaction mechanism, the rate of acid-catalyzed proton exchange of GdL2 and Gd(HL2) is vH = kH[H3O^+][GdL2] and vH = kH[H3O^+][Gd(HL2)], where the kH rate constant characterizes the acid-catalyzed proton exchange processes of GdL2 and Gd(HL2) species. Because of the fast internal rearrangement, the alcoholic −OH and −COOH protons cannot be distinguished, and their lifetime is τp = (kH[H^+])^−1 in both cases. The rate of the base-catalyzed exchange between the alcoholic −OH proton of GdL1 and GdL2 and the bulk is vOH = kOH[OH^–][GdL] and τp = (kOH [OH^–])^−1, where the rate constant kOH characterizes the base-catalyzed proton exchange process for GdL1 and GdL2. Both acid- and base-catalyzed exchange mechanisms require the diffusion-controlled formation of an H-bonded complex and subsequently the rapid separation of the corresponding conjugate acid and base.[29] By considering the proposed reaction mechanism, eq 2 can be rewritten as follows: [drawing 3] 3 where αH = KGdLH–1[H^+] + KGdHLKGdLH–1[H^+]^2, ^GdHLr1^is+os, ^GdLr1^is+os, and ^GdLH–1r1^is+os are the sum of r1^is and r1^os for GdHL, GdL, and GdLH–1 species, respectively. Whereas for GdL2 the experimental data (Figure 1) were fitted to eq 3 (Table 2), in the case of GdL1, eq 3 was modified to account for the formation of GdL1 and Gd(L1)H–1 species and the base-catalyzed exchange of the −OH proton. Thus, the first and fourth terms and kH[H^+] of the denominator in the last term in the brackets were not considered.
Proton relaxation measurements (1/T1) and the resulting 1/T1 NMRD profiles were measured on a fast-field cycling (FFC) Stelar SmarTracer relaxometer over a continuum of magnetic field strengths from 0.000 24 to 0.25 T (corresponding to 0.01–10 MHz proton Larmor frequencies). The relaxometer operates under computer control with an absolute uncertainty in 1/T1 of ±1%. […] Furthermore, the real temperature inside the probe head was additionally monitored by a Fluke 52 k/j digital thermometer (Fluke, Zürich, Switzerland). The gadolinium concentration was determined by measuring the bulk magnetic susceptibility shifts of the t-BuOH ^1H NMR signal. Additional data in the 20–120 MHz frequency range were obtained with a high field relaxometer (Stelar) equipped with the HTS-110 3T metrology cryogen-free superconducting magnet. […] The pH-dependent relaxivity measurements of GdL1 and GdL2 complexes were carried out by direct titration of the samples (GdL2, 3.0 < pH < 12.5; GdL1, 4 < pH < 10). The pH was adjusted by the stepwise addition of concentrated NaOH or HCl solution. […]

From PMC8769378, “Underlining the Importance of Peripheral Protic Functional Groups to Enhance the Proton Exchange of Gd-Based MRI Contrast Agents” (Inorganic Chemistry, 2021) come the findings set out here.

For `O=C([O-])CN1CCN(CC(=O)[O-])CCN(CC(O)C(=O)O)CCN(CC(=O)[O-])CC1.[Gd+3]` (centres unmarked) [GdL2], for the setting “20 MHz”, the “^GdHLr1^is+os” value is given as 5.11 ± 0.08 mM^–1 s^–1, the “^GdLH–1r1^is+os” value was 4.93 ± 0.03 mM^–1 s^–1 and the “^GdLr1^is+os” value was 4.85 ± 0.04 mM^–1 s^–1. Also, the “kH × 10^–11” value (acid-catalyzed proton exchange) was 1.5 ± 0.2 M^–1 s^–1. For the same compound, the “kOH × 10^–10” value (base-catalyzed proton exchange) stood at 0.17 ± 0.04 M^–1 s^–1.
